From patent US6638933B2, “Bicyclic imidazo-3-yl-amine derivatives” (Gruenenthal GmbH, priority 1999, dated 2003)

Tested on: phenylquinone-induced writhing in mice
Test: Analgesia test in the writhing test in mice (phenylquinone-induced writhing)
Type: in vivo
Conditions: male NMRI mice, phenylquinone i.p. ten minutes after substance
Experimental: Analgesia Test in the Writhing Test in Mice
The analgesic activity was investigated in the phenylquinone-induced writhing in mice (modified according to I. C. Hendershot, J. Forsaith, J. Pharmacol. Exp. Ther. 125, 237-240 (1959)). Male NMRI mice weighing 25-30 g were used. Groups of 10 animals per substance dose received 0.3 ml/mouse of a 0.02% aqueous solution of phenylquinone (phenylbenzoquinone, Sigma, Deisenhofen; solution prepared with the addition of 5% ethanol and storage in a water-bath at 45° C.) administered intraperitoneally ten minutes after intravenous or subcutaneous administration of the test substances. The animals were placed individually in observation cages. The number of pain-induced extension movements (so-called writhing reactions=straightening of the body with stretching out of the hind extremities) 5-20 minutes after administration of the phenylquinone was counted by means of a push-button counter. Animals which receive only physiological saline solution were also run as a control. The substances were tested in the standard dosage of 10 mg/kg intravenously or 21.5 mg/kg subcutaneously. The percentage inhibition (% inhibition) of the writhing reaction by a substance was calculated in accordance with the following equation: [formula]

Structure (SMILES)	% inhibition of the writhing reaction at 10 mg/kg intravenously (writhing counted 5-20 minutes) [%]	also measured
Cc1nc2ccccn2c1NC1CCCCC1 [Example 24, Cyclohexyl-(2-methyl-imidazo[1,2-a]pyridin-3-yl)-amine]	56	–
c1coc(-c2nc3ccccn3c2NC2CCCCC2)c1 [Example 20, Cyclohexyl-(2-furan-2-yl-imidazo[1,2-a]pyridin-3-yl)-amine]	43	–
CC(C)(C)Nc1c(-c2cccnc2)nc2ccccn12 [Example 21, tert-Butyl-(2-pyridin-3-yl-imidazo[1,2-a]pyridin-3-yl)-amine]	–	% inhibition of the writhing reaction at 21.5 mg/kg subcutaneously (21.5 mg/kg subcutaneously, writhing counted 5-20 minutes): 80%
CC(C)(C)Nc1c(-c2cccs2)nc2ccccn12 [Example 23, tert-Butyl-(2-thiophen-2-yl-imidazo[1,2-a]pyridin-3-yl)-amine]	62	–
CCOP(=O)(CNc1c(-c2ccccc2)nc2ccccn12)OCC [Example 12, [(2-Phenyl-imidazo[1,2-a]pyridin-3-ylamino)-methyl]-phosphonic acid diethyl ester]	90	–
CC(C)(C)Nc1c(C(C)(C)C)nc2ccccn12 [Example 13, tert-Butyl-(2-tert-butyl-imidazo[1,2-a]pyridin-3-yl)-amine]	–	% inhibition of the writhing reaction, intravenously, at 2.15 mg/kg (2.15 mg/kg (stated in cell) in the intravenous column): 86 at 2.15 mg/kg %
CC(C)(C)Nc1c(-c2ccccn2)nc2ccccn12 [Example 22, tert-Butyl-(2-pyridin-2-yl-imidazo[1,2-a]pyridin-3-yl)-amine]	53	–
